The values below are quoted from earlier work in patent US9005587B2, “Anti-bacterial and mineralizing calcium phosphate compositions” (New York University, priority 2011, dated 2015).

For this series, the system named is bacteria. The conditions noted are these: in vitro; Rolla et al. 1975.

For `F` [F−, fluoride], the “F− in solution needed to inhibit adsorption of bacteria on hydroxyapatite” value is reported as “approximately 9,500 ppm”.
